The subject of series [1] is retinal vascular development of control pups. The series can be described thus: CDK4/6i treatment alone in control C57BL/6 pups, retinal vasculature. As to conditions: P7 control pups, no BMP9/10 Abs. It counts as in vivo, mouse. The text has this:
FIGS. 10A and 10B illustrate the timeline used for CDK4/6i treatment alone in C57BL/6 pups and representative images showing retinal vasculature of P7 animals labelled with IB4 (N=3 to 4 animals/group). Vascular perfusion assessed using blue latex dye in lungs (FIGS. 10C-D), duodenum (FIGS. 10E-F) and brain (FIGS. 10G-H) from control, BMP9/10 Abs-treated, BMP9/10 Abs- and CDK4/6i-treated P7 animals. Lung samples have been clarified. Quantifications of intrapulmonary artery diameter (FIG. 10D) and intestinal capillary diameter (FIG. 10F). Red arrows indicate intestinal capillaries (N=3 to 7 animals/group. Data are mean±SEM, one-way ANOVA with Holm-Šidàk's multiple comparison test, **p≤0.01, *p≤0.05, ns p>0.05). Quantification of left middle cerebral artery (MCA) and basilar artery (BA) diameter (FIG. 10H). (N=5 to 9 animals/group. Data are mean±SEM, one-way ANOVA with Holm-Sidak's multiple comparison test, ns p>0.05). Scale bars: (FIGS. 10C and 10G): 2 mm, (E): 1 mm.
Thus, to test whether the use of pharmacological cell cycle modulators could prevent the development of AVMs in a murine model of HHT, we used Palbociclib, a CDK4 and CDK6 inhibitor (CDK4/6i) that blocks the transition from G1 to S state^8. Pups were injected at P2 and P4 with BMP9/10 antibodies, followed by Palbociclib treatment starting at P4, then at P5 and P6 (FIG. 2A).

Another series deals with VEGF-A signaling. The series can be described thus: Western Blot of VEGF-A-induced signaling in HUVECs. As to conditions: Palbociclib pre-treatment 24 h, 15-minute VEGF-A stimulation. Type of series: cell-based, human. Here is the method:
FIG. 8A illustrates Western Blot analysis of the phosphorylation of the indicated proteins in response to VEGF-A (1.5 nM) in control vs. CDK4/6i treated HUVECs. FIG. 8B illustrates Western Blot analysis of the phosphorylation of the indicated proteins in response to BMP9 (10 ng/ml) in control vs. CDK4/6i-treated HUVECs. FIG. 8C illustrates quantification of phosphorylation normalized to total protein levels. (N=5 independent experiments, Data are mean±SEM, Mann-Whitney U test: *p<0.05). […] FIG. 8E illustrates ENDOGLIN (green) and IB4 (white) staining of retinal flat-mounts from P5 Alk1^fl/fl, Alk1^fl/fl treated with CDK4/6i, Alk1EC^iKO, and Alk1EC^iKO treated with CDK4/6i animals (A: Artery; V: Vein). FIG. 8F illustrates quantification of fluorescence intensity of ENDOGLIN staining in (FIG. 8E) retinal venous vessels of the indicated animals (N=4 retinas per group. Data are mean±SEM, one-way ANOVA with Tukey's multiple comparison test: *p<0.05; ns p>0.05). FIG. 8G illustrates timeline used for Tx injection, and CDK4/6i and FLT1 blocking antibody treatment of Alk1EC^iKO pups. […]
Next, we treated HUVECs with Alk1 siRNA to silence Alk1 and test the VEGF-A-induced response, with or without Palbociclib treatment, using pAKT activation as a readout.
On the technique in general: Immunoblotting shows a protein as a band on a membrane.

Series [2] relates to brain vascular anomalies in adult Alk1 mutant animals. The series can be described thus: Brain vasculature of adult Alk1 mutant animals (HHT model). It counts as in vivo, mouse. As to conditions: 3 doses 120 mg/kg oral gavage at day 7, 9 and 11 after tamoxifen, 3 weeks after induction. The source says:
Euthanized animals have been perfused with colored reagent to visualize the blood vessels.

In series [3] the test system is vascular malformations in Alk1EC^iKO pups. The series can be described thus: Blue latex dye vascular perfusion of brain, lungs and intestinal tract in Alk1EC^iKO pups. It counts as in vivo, mouse. The text has this: FIG. 5A illustrates a timeline used for tamoxifen (Tx) injection and CDK4/6i treatment of Alk1EC^iKO pups. FIG. 5B illustrates representative images showing retinal vasculature labelled with IB4 from control, Alk1EC^iKO, and Alk1EC^iKO+CDK4/6i-treated P5 animals. Bar graphs showing (FIG. 5C) quantification of AV shunt number per retina, (FIG. 5D) vascular density, and (FIG. 5E) vascular progression. (N=8 to 10 retinas/group, at least 4 mice). Data are mean±SEM, One-way ANOVA, *p≤0.05, **p≤0.01). FIG. 5F illustrates a timeline used for Tx injection and CDK4/6i treatment of Alk1EC^iKO pups for blue latex dye perfusion experiments. FIG. 5G illustrates blue latex dye vascular perfusion in brains from control, Alk1EC^iKO, and Alk1EC^iKO+CDK4/6i-treated P7 animals. […] FIG. 5H illustrates the quantification of left middle cerebral artery (MCA) and basilar artery (BA) in control, Alk1EC^iKO, and Alk1EC^iKO+CDK4/6i-treated animals. FIG. 5I illustrates the quantification of the number of latex filled veins in control, Alk1EC^iKO, and Alk1EC^iKO+CDK4/6i-treated animals. (N=4 to 6 mice/group. Data are mean±SEM, one-way ANOVA with Holm-Šidàk's multiple comparison test, *p≤0.05, **p≤0.01, ***p<0.001). Scale bar (G): 4 mm.
About 50% of HHT patients harbor mutations in the Acvrl1 gene^1, which encodes for the ALK1 receptor. To validate the clinical relevance of the use of Palbociclib for the treatment of HHT, we crossed Cdh5Cre^ERT2 mice with Alk1^flox/flox mice (6-8-week-old) to generate an endothelial-specific inducible deletion of Alk1 (referred to as Alk1EC^iKO), which is an established preclinical mouse model of human HHT type 2^12,25. Neonatal Alk1EC^iKO pups received a single i.p. injection of tamoxifen at P3 to induce Alk1 gene deletion and were then treated with Palbociclib via oral gavage at P4, and their retinal vasculature was analyzed at P5 (FIG. 5A). […] Due to the relatively short survival time post-tamoxifen induction in Alk1EC^iKO mice (approximately 48 hours), our study is limited to a single Palbociclib injection, which represents a technical challenge in exploring additional treatments. […] Single Cell RNA sequencing analysis of Palbociclib effects on endothelial arteriovenous identity in Alk1EC^iKO mice.

The subject of series [4] is retinal ECs in veins and arteries. The series can be described thus: Flow-mediated EC polarization (Golgi orientation) in retinal vessels, BMP9/10 Abs model. It counts as in vivo, mouse. As to conditions: BMP9/10 Abs + CDK4/6i.
Text: FIG. 3C illustrates the polarity axis of each cell was defined as the angle between the direction of blood flow and the cell polarity axis, defined by a vector drawn from the center of the cell nucleus to the center of the Golgi apparatus. FIG. 3D illustrates EC polarization in arteries and veins of control, BMP9/10 Abs-treated, and BMP9/10 Abs- and CDK4/6i-treated animals. EC nuclei are immunostained with anti-ERG1,2,3 and Golgi apparatus with anti-GM130; ECs are labelled with IB4. […] FIG. 3E illustrates angular histograms showing the distribution of polarization angles of retinal ECs in arteries and veins from control, BMP9/10 Abs-treated, and BMP9/10 Abs- and CDK4/6i-treated P6 animals (N=6 to 8 retinas). FIG. 3F illustrates polarity index dot plots of ECs from arteries (A) and veins (V) from control, BMP9/10 Abs-treated, and BMP9/10 Abs- and CDK4/6i-treated P6 animals (N=6 to 8 retinas. Data are mean±SEM **p≤0.01, ns p>0.05). Two-Way ANOVA for independent measures was used. p≤0.05 was considered statistically significant. […] To analyze the orientation of the Golgi toward the direction of the flow in retinal vessels, we measured the angle formed by the vector nucleus/Golgi in each EC and the predicted blood flow vector in the vessel (as depicted in FIG. 3C). We also quantified the EC polarization using a polarity index^22 ranging from 1 (highly polarized) to 0 (random distribution).

Molecules are shown by their SMILES. Entries after “also recorded” stand apart in the source; their conditions may differ.

Turning to `CC(=O)c1c(C)c2cnc(Nc3ccc(N4CCNCC4)cn3)nc2n(C2CCCC2)c1=O` [Palbociclib, 6-acetyl-8-cyclopentyl-5-methyl-2-[5-(1-piperazinyl)pyridine-2-ylamino]pyrido[2,3-d]pyrimidin-7(8H)-one], the “retinal vascular development under CDK4/6i treatment by itself” value in series [1] is “did not impair retinal vascular development”. In the series on VEGF-A signaling, the “pAKT activation in response to VEGF-A” value is reported as “significantly decreased” and the “pERK1/2 activation in response to VEGF-A” value is recorded as “significantly decreased”. For the same molecule, in series [2], the “brain vascular anomalies in adult Alk1 mutant animals” value is given as “regressed anomalies observed in the brain vasculature; also recorded: regressed brain vascular anomalies”. Moreover, in series [3] (P7, gastrointestinal tract), the “veins filled with blue latex (arteriovenous shunts) in the intestinal tract” value was “absent”. Further, the “diameter of the basilar and middle cerebral arteries” value in series [3] (brain, single dose of Palbociclib at P4) is recorded as “trend toward normalization”. Also, the “number of latex-filled veins in brain” value in series [3] (brain, vs untreated Alk1EC^iKO) is “significantly reduced”. Besides, the “latex blue dye extravasation across the intrapulmonary bed” value in series [3] (lungs) is on record as “dye extravasation was reduced”. In series [4], the “polarity of retinal ECs toward blood flow” value is reported as “oriented similarly to controls”.

The values are drawn from US20240285631A1, “METHODS OF TREATING VASCULAR MALFORMATIONS” (priority 2023, published 2024).
